Laboratory results: ChEMBL document CHEMBL4837184, “Antibacterial p-Terphenyl with a Rare 2,2'-Bithiazole Substructure and Related Compounds Isolated from the Marine-Derived Actinomycete Nocardiopsis sp. HDN154086” (J Nat Prod, 2021)
Converted amounts (≈) assume the structure as drawn.

What was measured:
Vibrio parahaemolyticus = assay: Antibacterial activity against Vibrio parahaemolyticus assessed as reduction in bacterial growth; assay type: functional; settings: time 24 hrs
Proteus sp. = assay: Antibacterial activity against Proteus sp. assessed as reduction in bacterial growth; assay type: functional; settings: Proteus sp. (in: enterobacteria); time 24 hrs
MDA-MB-231 = assay: Cytotoxicity against human MDA-MB-231 cells assessed as cell growth inhibition at 30 uM by SRB assay relative to control; assay type: functional; settings: read-out: GI
ASPC1 = assay: Cytotoxicity against human ASPC1 cells assessed as cell growth inhibition at 30 uM by SRB assay relative to control; assay type: functional; settings: read-out: GI
[1] = Cytotoxicity against human L02 cells assessed as cell growth inhibition at 30 uM by SRB assay relative to control; assay type: cell-based; settings: read-out: GI
Bacillus cereus = assay: Antibacterial activity against Bacillus cereus assessed as reduction in bacterial growth; assay type: functional; settings: time 24 hrs
Staphylococcus aureus [2] = assay: Antibacterial activity against methicillin-resistant Staphylococcus aureus assessed as reduction in bacterial growth; assay type: functional; settings: time 24 hrs
K562 = assay: Cytotoxicity against human K562 cells assessed as cell growth inhibition at 30 uM by MTT assay relative to control; assay type: functional; settings: read-out: GI
Bacillus subtilis = assay: Antibacterial activity against Bacillus subtilis assessed as reduction in bacterial growth; assay type: functional; settings: time 24 hrs
Staphylococcus aureus [3] = assay: Potency index, ratio of ciprofloxacin MIC to test compound MIC for methicillin-resistant Staphylococcus aureus; assay type: functional
Mycolicibacterium phlei = assay: Antibacterial activity against Mycobacterium phlei assessed as reduction in bacterial growth; assay type: functional; settings: time 24 hrs
Escherichia coli = assay: Antibacterial activity against Escherichia coli assessed as reduction in bacterial growth; assay type: functional; settings: time 24 hrs

| Structure (SMILES) | MIC (Vibrio parahaemolyticus) [µM] | MIC (Proteus sp.) [µM] | inhibition of growth at 30 µM (MDA-MB-231) [%] | inhibition of growth at 30 µM (ASPC1) [%] | inhibition at 30 µM [1] [%] | MIC (Bacillus cereus) [µM] | MIC (Staphylococcus aureus [2]) [µM] | inhibition of growth at 30 µM (K562) [%] | MIC (Bacillus subtilis) [µM] | Ratio (Staphylococcus aureus [3]) | MIC (Mycolicibacterium phlei) [µM] | MIC (Escherichia coli) [µM] |
| --- | --- | --- | --- | --- | --- | --- | --- | --- | --- | --- | --- | --- |
| COC(=O)CCSC1=C(c2ccc(OC)cc2)C(=O)C(OC)=C(c2ccc(OC)cc2)C1=O | > 50 | 12 (≈ 5.62 µg/mL) | < 50 | < 50 | < 50 | > 50 | 6.2 (≈ 2.9 µg/mL) | < 50 | 12 (≈ 5.62 µg/mL) | 8 | > 50 | > 50 |
| COC1=C(c2ccc(OC)cc2)C(=O)C(SC)=C(c2ccc(OC)cc2)C1=O | – | – | < 50 | < 50 | < 50 | – | – | < 50 | – | – | – | – |
| COC(=O)CSC1=C(c2ccc(OC)cc2)C(=O)C(OC)=C(c2ccc(OC)cc2)C1=O | – | – | < 50 | < 50 | < 50 | – | – | < 50 | – | – | – | – |
| O=C(O)c1cn(C2CC2)c2cc(N3CCNCC3)c(F)cc2c1=O [CIPROFLOXACIN] | 0.39 (≈ 0.129 µg/mL) | 1.5 (≈ 0.497 µg/mL) | – | – | – | 1.5 (≈ 0.497 µg/mL) | 50 (≈ 16.6 µg/mL) | – | 0.39 (≈ 0.129 µg/mL) | – | 0.78 (≈ 0.258 µg/mL) | 0.78 (≈ 0.258 µg/mL) |
| COc1ccc(-c2c(OC)c(O)c(-c3ccc(OC)cc3)c3sc(-c4nccs4)nc23)cc1 | 6.2 (≈ 2.95 µg/mL) | 3.1 (≈ 1.48 µg/mL) | < 50 | < 50 | < 50 | 1.5 (≈ 0.715 µg/mL) | > 50 | < 50 | 3.1 (≈ 1.48 µg/mL) | – | 6.2 (≈ 2.95 µg/mL) | 3.1 (≈ 1.48 µg/mL) |
| COC1=C(c2ccc(OC)cc2)C(=O)C(N)=C(c2ccc(OC)cc2)C1=O | – | – | < 50 | < 50 | < 50 | – | – | < 50 | – | – | – | – |
